Measurements from patent publication US20250250282A1, “NOVEL SEVEN-MEMBERED RING-FUSED COMPOUNDS” (PRISM Biolab Co., Ltd., priority 2022, published 2025).

Each molecule was assayed on CellSensor T-REx NICD CSL-bla HeLa cell line (Notch response element driving beta-lactamase reporter) (assay: Notch assay (CSL-bla beta-lactamase reporter, DOX-inducible NICD)). Conditions: Homo sapiens; 10 μM compound; HeLa/T-REx NICD CSL-bla cells, doxycycline-induced, 16-20 hours incubation; blue/green emission ratio.
Format: cell-based
Method: We used the CellSensor T-REx™ NICD CSL-bla HeLa cell line, which was engineered by lentiviral transduction of HeLa cells with a Notch response element driving beta-lactamase reporter gene expression (CSL-bla) along with DOX (doxycycline)-inducible NICD (Notch intracellular domain) constructs. Addition of DOX to these cells allows for regulated NICD transcription factor expression and subsequent beta-lactamase expression.
Specifically, the following protocol was used.
• 1. Plate Cells: 32 μL/well of HeLa/T-REx™ NICD CSL-bla cells at 10^3 cells/well complete medium into 384-well plate. • 2. Prepare 10× compounds in assay medium. • 3. Add 4 μL compounds or 1% DMSO in assay medium to the cells. • 4. Add 4 μL 10× Doxycycline in Assay Medium to the treated wells, and 4 μL Assay Medium to the Untreated and cell free control wells. • 5. Incubate the assay plate in a humidified 37° C./5% CO2 incubator for 16-20 hours. • 6. Preparation of 6× LiveBLAzer™-FRET B/G Substrate (CCF4-AM) Mixture according to the manual and cell loading should be done in the absence of direct strong lighting. • 7. Remove assay plate from the humidified 37° C./5% CO2 incubator. Add 8 μl of 6× Substrate Mixture from […] to each well. Cover the plate to protect it from light and evaporation. Incubate at room temperature for 4 hours. • 8. Reading an Assay Plate using the following filter selections:
• 9. Data analysis: Use the assay plate layout to identify the location of the Cell-free wells. These control wells are used for background subtraction. Determine the average emission from the Cell-free wells at both 460 nm (Average Blue Background) and 530 nm (Average Green Background). Subtract the Average Blue Background (data collected at 460 nm) from all of the blue emission data. Subtract the Average Green background (data collected at 530 nm) from all of the green emission data. Calculate the Blue/Green Emission Ratio for each well, by dividing the background-subtracted blue emission values by the background-subtracted green emission values.

Q: `O=C1[C@H](Cc2ccccc2)CN2C(=O)CCN(C(=O)NCCC(c3ccccc3)c3ccccc3)C2CN1CCc1ccccc1` (stereo partly drawn) [ID-12, (7R)-7-benzyl-N-(3,3-diphenylpropyl)-4,8-dioxo-9-phenethyloctahydropyrimido[1,2-a][1,4]diazepine-1(2H)-carboxamide] was tested. Which inhibition at 10 µM did it give?
A: 51.7%

Q: For `C[C@@H]1CN2C(=O)CCN(C(=O)NCc3cccc4ccccc34)C2CN(CC2CCCCC2)C1=O` (stereo partly drawn) [ID-03, (7R)-9-(cyclohexylmethyl)-7-methyl-N-(naphthalen-1-ylmethyl)-4,8-dioxooctahydropyrimido[1,2-a][1,4]diazepine-1(2H)-carboxamide], which inhibition at 10 µM is on record?
A: 53.4%

Q: How did the inhibition at 10 µM turn out when `CCCCN1CC2N(C[C@@H](Cc3ccccc3)C1=O)C(=O)CCN2C(=O)NCCC(c1ccccc1)c1ccccc1` (stereo partly drawn) [ID-04, (7R)-7-benzyl-9-butyl-N-(3,3-diphenylpropyl)-4,8-dioxooctahydropyrimido[1,2-a][1,4]diazepine-1(2H)-carboxamide] was run?
A: 54.7%

Q: Which inhibition at 10 µM does the source give for `CC(C)CCN1CC2N(C[C@@H](Cc3ccc(O)cc3)C1=O)C(=O)CCN2C(=O)NCCC(c1ccccc1)c1ccccc1` (stereo partly drawn) [ID-05, (7R)—N-(3,3-diphenylpropyl)-7-(4-hydroxybenzyl)-9-isopentyl-4,8-dioxooctahydropyrimido[1,2-a][1,4]diazepine-1(2H)-carboxamide] here?
A: 51.5%

Q: For `CC(C)CCN1CC2N(C[C@@H](Cc3ccc(O)cc3)C1=O)C(=O)c1sccc1N2C(=O)NCc1cccc2ccccc12` (stereo partly drawn) [ID-26, (8R)-8-(4-hydroxybenzyl)-6-isopentyl-N-(naphthalen-1-ylmethyl)-7,11-dioxo-4a,5,6,7,8,9-hexahydrothieno[3′,2′:4,5]pyrimido[1,2-a][1,4]diazepine-4(11H)-carboxamide], which inhibition at 10 µM is on record?
A: 61.1%

Q: For `CC(C)[C@@H]1CN2C(=O)CCN(C(=O)NCc3ccccc3)C2CN(Cc2ccc3ccccc3c2)C1=O` (stereo partly drawn) [ID-01, (7R)—N-benzyl-7-isopropyl-9-(naphthalen-2-ylmethyl)-4,8-dioxooctahydropyrimido[1,2-a][1,4]diazepine-1(2H)-carboxamide], which inhibition at 10 µM is on record?
A: 54.7%

Q: Which inhibition at 10 µM does the source give for `CC(C)[C@@H]1CN2C(=O)c3sccc3N(C(=O)NCc3ccccc3)C2CN(Cc2ccc3ccccc3c2)C1=O` (stereo partly drawn) [ID-20, (8R)—N-benzyl-8-isopropyl-6-(naphthalen-2-ylmethyl)-7,11-dioxo-4a,5,6,7,8,9-hexahydrothieno[3′,2′:4,5]pyrimido[1,2-a][1,4]diazepine-4(11H)-carboxamide] here?
A: 56.8%

Q: `CCCCN1CC2N(C[C@@H](CC(C)C)C1=O)C(=O)c1sccc1N2C(=O)NCc1cccc2ccccc12` (stereo partly drawn) [ID-24, (8R)-6-butyl-8-isobutyl-N-(naphthalen-1-ylmethyl)-7,11-dioxo-4a,5,6,7,8,9-hexahydrothieno[3′,2′:4,5]pyrimido[1,2-a][1,4]diazepine-4(11H)-carboxamide] was tested. Which inhibition at 10 µM did it give?
A: 51.1%

Q: With `O=C1[C@H](Cc2ccc(O)cc2)CN2C(=O)CCN(C(=O)NCCC(c3ccccc3)c3ccccc3)C2CN1Cc1cccc2cccnc12` (stereo partly drawn) [ID-13, (7R)—N-(3,3-diphenylpropyl)-7-(4-hydroxybenzyl)-4,8-dioxo-9-(quinolin-8-ylmethyl)octahydropyrimido[1,2-a][1,4]diazepine-1(2H)-carboxamide] as the molecule, how does the inhibition at 10 µM read?
A: 53.7%

Q: How did the inhibition at 10 µM turn out when `CC(C)[C@@H]1CN2C(=O)CCN(C(=O)NCCC(c3ccccc3)c3ccccc3)C2CN(CCc2ccccc2)C1=O` (stereo partly drawn) [ID-09, (7R)—N-(3,3-diphenylpropyl)-7-isopropyl-4,8-dioxo-9-phenethyloctahydropyrimido[1,2-a][1,4]diazepine-1(2H)-carboxamide] was run?
A: 54.1%

Q: Which inhibition at 10 µM does the source give for `Cc1ccc(CNC(=O)N2c3ccsc3C(=O)N3C[C@@H](Cc4ccc(O)cc4)C(=O)N(CCC(C)C)CC32)cc1` (stereo partly drawn) [ID-37, (8R)-8-(4-hydroxybenzyl)-6-isopentyl-N-(4-methylbenzyl)-7,11-dioxo-4a,5,6,7,8,9-hexahydrothieno[3′,2′:4,5]pyrimido[1,2-a][1,4]diazepine-4(11H)-carboxamide] here?
A: 66.3%

Q: For `O=C1[C@H](Cc2ccc(O)cc2)CN2C(=O)CCN(C(=O)NCC3CCCCC3)C2CN1Cc1cccc2ccccc12` (stereo partly drawn) [ID-15, (7R)—N-(cyclohexylmethyl)-7-(4-hydroxybenzyl)-9-(naphthalen-1-ylmethyl)-4,8-dioxooctahydropyrimido[1,2-a][1,4]diazepine-1(2H)-carboxamide], which inhibition at 10 µM is on record?
A: 57.5%

Q: With `CC(C)CCN1CC2N(C[C@@H](CC(C)C)C1=O)C(=O)c1sccc1N2C(=O)NCc1cccc2ccccc12` (stereo partly drawn) [ID-25, (8R)-8-isobutyl-6-isopentyl-N-(naphthalen-1-ylmethyl)-7,11-dioxo-4a,5,6,7,8,9-hexahydrothieno[3′,2′:4,5]pyrimido[1,2-a][1,4]diazepine-4(11H)-carboxamide] as the molecule, how does the inhibition at 10 µM read?
A: 52.8%

Q: Which inhibition at 10 µM does the source give for `CC(C)[C@@H]1CN2C(=O)c3sccc3N(C(=O)NCc3cccs3)C2CN(Cc2ccc3ccccc3c2)C1=O` (stereo partly drawn) [ID-35, (8R)-8-isopropyl-6-(naphthalen-2-ylmethyl)-7,11-dioxo-N-(thiophen-2-ylmethyl)-4a,5,6,7,8,9-hexahydrothieno[3′,2′:4,5]pyrimido[1,2-a][1,4]diazepine-4(11H)-carboxamide] here?
A: 54.9%

Q: With `O=C1[C@H](Cc2ccccc2)CN2C(=O)c3sccc3N(C(=O)NCCc3ccccc3)C2CN1Cc1cccc2cccnc12` (stereo partly drawn) [ID-23, (8R)-8-benzyl-7,11-dioxo-N-phenethyl-6-(quinolin-8-ylmethyl)-4a,5,6,7,8,9-hexahydrothieno[3′,2′:4,5]pyrimido[1,2-a][1,4]diazepine-4(11H)-carboxamide] as the molecule, how does the inhibition at 10 µM read?
A: 54.6%

Q: For `CC(C)CCN1CC2N(C[C@@H](Cc3ccccc3)C1=O)C(=O)CCN2C(=O)NCCC(c1ccccc1)c1ccccc1` (stereo partly drawn) [ID-06, (7R)-7-benzyl-N-(3,3-diphenylpropyl)-9-isopentyl-4,8-dioxooctahydropyrimido[1,2-a][1,4]diazepine-1(2H)-carboxamide], which inhibition at 10 µM is on record?
A: 51.8%

Q: Which inhibition at 10 µM does the source give for `O=C1[C@H](Cc2ccccc2)CN2C(=O)CCN(C(=O)NCCC(c3ccccc3)c3ccccc3)C2CN1CC1CCCCC1` (stereo partly drawn) [ID-07, (7R)-7-benzyl-9-(cyclohexylmethyl)-N-(3,3-diphenylpropyl)-4,8-dioxooctahydropyrimido[1,2-a][1,4]diazepine-1(2H)-carboxamide] here?
A: 54.7%

Q: How did the inhibition at 10 µM turn out when `O=C1[C@H](Cc2ccc(O)cc2)CN2C(=O)c3sccc3N(C(=O)NCCc3ccccc3)C2CN1Cc1cccc2ccccc12` (stereo partly drawn) [ID-22, (8R)-8-(4-hydroxybenzyl)-6-(naphthalen-1-ylmethyl)-7,11-dioxo-N-phenethyl-4a,5,6,7,8,9-hexahydrothieno[3′,2′:4,5]pyrimido[1,2-a][1,4]diazepine-4(11H)-carboxamide] was run?
A: 56.2%

Q: For `O=C1[C@H](Cc2ccccc2)CN2C(=O)CCN(C(=O)NCCC(c3ccccc3)c3ccccc3)C2CN1Cc1ccccc1` (stereo partly drawn) [ID-08, (7R)-7,9-dibenzyl-N-(3,3-diphenylpropyl)-4,8-dioxooctahydropyrimido[1,2-a][1,4]diazepine-1(2H)-carboxamide], which inhibition at 10 µM is on record?
A: 64.9%

Q: For `C[C@@H]1CN2C(=O)c3sccc3N(C(=O)NCCC(c3ccccc3)c3ccccc3)C2CN(Cc2ccc3ccccc3c2)C1=O` (stereo partly drawn) [ID-29, (8R)—N-(3,3-diphenylpropyl)-8-methyl-6-(naphthalen-2-ylmethyl)-7,11-dioxo-4a,5,6,7,8,9-hexahydrothieno[3′,2′:4,5]pyrimido[1,2-a][1,4]diazepine-4(11H)-carboxamide], which inhibition at 10 µM is on record?
A: 56.7%
